Assay results reported in publication PMC6148246, “HS-1371, a novel kinase inhibitor of RIP3-mediated necroptosis” (Experimental & Molecular Medicine, 2018).

Key:
L929 = experiment: TNF plus zVAD-induced necroptosis in L929 cells; format: cell-based, mouse
Experimental: (§1) Cells were pretreated with DAB or HS-1371 for 2 h and then treated with TSZ (6 h for immunoblotting, 24 h for cell death assay). Cell lysates were analyzed by immunoblotting (left bottom panel), and cell viability was analyzed by MTT assay (right panel). The results are presented as means ± SEM. *P < 0.05, **P < 0.01, ***P < 0.001. c, d HS-1371 had the same effect on mouse cells. L929 (mouse sarcoma, c) and MEF (mouse embryonic fibroblast, d) cells were pretreated with inhibitors and then necroptosis was induced by TNF. Cell lysates were analyzed by immunoblotting (upper panel), and cell viability was analyzed by MTT assay (bottom panel). The results are presented as means ± SEM. *P < 0.05, **P < 0.01, ***P < 0.001

H2009 cells = H2009 cells ectopically expressing RIP3, TSZ-induced necroptosis; format: cell-based, human; settings: H2009 with ectopic RIP3
Experimental: HEK293T, HT-29, H2009, L929, HeLa, and MEF cells were grown in Dulbecco’s Modified Eagle’s Medium (DMEM) supplemented with 10% fetal bovine serum (FBS). RAW264.7 cells were grown in Roswell Park Memorial Institute (RPMI) 1640 media supplemented with 10% FBS. To generate cell lines stably expressing the RIP3 construct, HeLa and H2009 cells were infected with pLX303-hRIP3 lentivirus.
as §1

HT-29 cells = experiment: TNF-induced apoptosis in HT-29 cells (TC or TS); format: cell-based, human; settings: HT-29, 5 μM pretreated 2 h
Experimental: HT-29 cells expressing RIP3 shRNA, MLKL shRNA, or non-silencing control were analyzed by western blotting (upper panel), and these cells were treated with TSZ (6 h for immunoblotting, 24 h for cell death assay). Cell lysates were analyzed by immunoblotting (middle panel), and cell viability was analyzed by MTT assay (bottom panel). The results are presented as means ± SEM. *P < 0.05, **P < 0.01, ***P < 0.001. b HS-1371 protected cells not only from TNF-induced necroptosis but also from TRAIL-induced necroptosis. HT-29 cells were pretreated with indicated concentrations of HS-1371 and then treated with TRAIL + Smac + zVAD (6 h for immunoblotting, 24 h for cell death assay). Cell lysates were analyzed by immunoblotting, and cell viability was analyzed by MTT assay or phase-contrast microscopy. The results are presented as means ± SEM. *P < 0.05, **P < 0.01, ***P < 0.001. c, d HS-1371 had no effect on TNF-induced apoptosis. HT-29 cells were pretreated with HS-1371 (5 μM) for 2 h and then treated with TC or TS (TNF + either cycloheximide or SMAC mimetic, hereafter referred to as TC or TS, 6 h for immunoblotting, 24 h (TC) or 36 h (TS) for cell death assay). Cell lysates were analyzed by immunoblotting, and cell viability was analyzed by MTT assay (TC) or CellTiter-Glo Luminescent Cell Viability Assay Kit (TS). The results are presented as means ± SEM. *P < 0.05, **P < 0.01, ***P < 0.001

necrosome complex = target: T1, necrosome complex (Homo sapiens, UniProt Q9Y572); experiment: Necrosome complex formation, anti-RIP3 immunoprecipitation in HT-29 cells; format: cell-based; settings: HT-29, 5 μM pretreated 2 h, TSZ 4 h
T1 construct: endogenous in cells; host or cells: HT-29
Experimental: Cells were rinsed in cold phosphate-buffered saline (PBS) and lysed in M2 buffer containing 20 mM Tris at pH 7, 0.5% NP-40, 250 mM NaCl, 3 mM EDTA, 3 mM EGTA, 2 mM DTT, 0.5 mM PMSF, 20 mM β-glycerol phosphate, 1 mM sodium vanadate, and 1 μg/mL leupeptin. The cell extracts were subjected to western blot analysis. For immunoprecipitation, lysates were mixed and precipitated with antibody and protein A-agarose beads overnight or for 4 h at 4 °C. Bound proteins were removed by boiling in SDS and resolved by SDS-PAGE, and immunoblotting was visualized by enhanced chemiluminescence (ECL, Amersham).
Fig. 2 Novel inhibitors can block RIP3 S227 phosphorylation. a Western blotting showing various kinase inhibitor effects on RIP3 S227 auto-phosphorylation. HT-29 cells were treated with four tested kinase inhibitors (1308, 1336, 1338, and 1371, 10 μM) for 9 h. As a control, KK5101 (Trk alpha inhibitor) and HS829 (IKK beta inhibitor) were also treated at a concentration of 10 μM for 9 h. […] HT-29 cells were treated with 4 tested kinase inhibitors for 24 h, and cell viability was analyzed by MTT assay or phase-contrast microscopy. […] Cell lysates were analyzed by immunoblotting. f HT-29 cells were pretreated with Nec-1 (40 μM), DAB (5 μM) or HS-1371 (5 μM) for 2 h and then treated with TSZ for 4 h. […] Immunoprecipitates and total lysates were analyzed by Western blotting

RIP3 = RIP3 (Homo sapiens, UniProt Q9Y572); experiment: Radiometric kinase assay of RIP3 (Reaction Biology); format: biochemical; set-up: purchased Reaction Biology Corp (Malvern, PA, USA); settings: 10 μM ATP, 20 μM MBP substrate; read-out: IC50 against RIP3
Experimental: The inhibitory activities of all compounds toward RIP3 were measured by Reaction Biology Corp (Malvern, PA, USA) by means of radiometric kinase assays ([…]). The enzymatic activity of RIP3 was monitored using 20 μM of myelin basic protein (MBP) dissolved in freshly prepared reaction buffer (20 mM HEPES (pH 7.5), 10 mM MgCl2, 1 mM EGTA, 0.02% BRIJ-35, 0.02 mg/mL BSA, 0.1 mM Na3VO4, 2 mM DTT, 1% DMSO). Each putative RIP3 inhibitor was dissolved in 100% DMSO at specific concentrations and serially diluted with epMotion 5070 in DMSO. Human RIP3 and 20 μM of peptide substrate (MBP) were added to the reaction buffer. After delivering the candidate inhibitor dissolved in DMSO to the kinase reaction mixture using Acoustic technology (Echo550; nanoliter range), the reaction mixture was incubated for 20 min at room temperature. To initiate the enzymatic reaction, ^33P-ATP with specific activity of 10 μCi/μL was added to the reaction mixture to reach a final ATP concentration of 10 μM. Radioactivity was then monitored using the filter binding method after incubation of the reaction mixture for 2 h at room temperature. At given concentrations of inhibitor, biochemical potency was measured by the percent remaining kinase activity with respect to the vehicle (dimethyl sulfoxide) reaction. Curve fits and IC50 values were then obtained using the PRISM program (GraphPad Software). […]

RIP3, sequence (Q9Y572 whole entry): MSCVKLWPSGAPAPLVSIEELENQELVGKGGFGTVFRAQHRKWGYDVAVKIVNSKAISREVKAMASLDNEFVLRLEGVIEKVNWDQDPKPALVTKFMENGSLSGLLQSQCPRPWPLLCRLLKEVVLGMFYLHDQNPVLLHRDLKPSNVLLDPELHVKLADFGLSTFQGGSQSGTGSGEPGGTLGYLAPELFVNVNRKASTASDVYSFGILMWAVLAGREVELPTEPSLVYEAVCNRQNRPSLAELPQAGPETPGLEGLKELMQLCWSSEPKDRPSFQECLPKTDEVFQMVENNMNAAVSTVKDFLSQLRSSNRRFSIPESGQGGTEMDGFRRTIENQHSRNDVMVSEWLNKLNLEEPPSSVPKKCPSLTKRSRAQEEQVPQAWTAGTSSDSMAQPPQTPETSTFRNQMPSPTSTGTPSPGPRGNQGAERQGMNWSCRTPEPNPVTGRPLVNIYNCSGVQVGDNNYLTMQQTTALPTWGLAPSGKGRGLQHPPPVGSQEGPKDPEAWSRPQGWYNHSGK
T1 sequence (Q9Y572 whole entry, one chain of several): as the sequence (Q9Y572 whole entry) above

Cc1ccc(Oc2ccnc3cc(-c4cnn(C5CCNCC5)c4)ccc23)cc1 [HS-1371, 7-(1-(Piperidin-4-yl)-1H-pyrazol-4-yl)-4-(p-tolyloxy)quinoline]
TNF plus zVAD-induced necroptosis (L929): prevented | TSZ-induced necroptosis (H2009 cells): prevented | apoptosis induced by TNF plus CHX (HT-29 cells; TC 24 h, MTT): did not inhibit | apoptosis induced by TNF plus Smac mimetic (HT-29 cells; TS 36 h, CellTiter-Glo): did not inhibit | necrosome complex formation (MLKL recruitment) (necrosome complex): blocked necrosome complex formation | IC50 (RIP3): 20.8 nM
